Consider three molecules from patent US11698366B2, “Human tissue stem cell and use thereof” (KEIO UNIVERSITY, priority 2017, dated 2023).

One assay relates to cancer cell. The assay can be described thus: LGR5-iCT/CMV-GFP organoid screening, GFP fluorescence. As to conditions: final concentration shown in FIG. 8; DMSO control. It counts as cell-based, human. The source says: A CMV-GFP construct was further introduced into the LGR5-iCT organoid prepared in Experimental Example 4. In the CMV-GFP construct, a GFP gene was linked downstream of the CMV promoter, which is the forced expression promoter. Therefore, regardless of whether or not the LGR5 gene was expressed, the GFP gene was expressed in all cells and emitted fluorescence of the GFP protein. Hereinafter, these organoids may be referred to as “LGR5-iCT/CMV-GFP organoids” in some cases.
In the LGR5-iCT/CMV-GFP organoid, survival activity of the cancer cell can be observed by fluorescence of GFP, and survival activity of the cancer stem cell can be observed by fluorescence of tdTomato.
Using the LGR5-iCT/CMV-GFP organoid, high-throughput screening of existing anticancer drugs used for the treatment of colon cancer was performed, and the effects on the cancer cells and the cancer stem cells were examined.
FIG. 8 is a micrograph of an organoid showing a typical result. In FIG. 8, “BRIGHT FIELD” indicates a bright field observation image. “CMV-GFP” indicates a fluorescence micrograph obtained by observing GFP fluorescence”. “LGR5-tdTomato” indicates a fluorescence micrograph obtained by observing tdTomato fluorescence. “Merge” indicates the result obtained by synthesizing the bright-field observation image, the GFP fluorescence micrograph, and the micrograph of tdTomato fluorescence. […]

The next assay deals with cancer stem cell. As to the kind of experiment: LGR5-iCT/CMV-GFP organoid screening, tdTomato fluorescence. The assay is classed as cell-based, human. The note with it: final concentration shown in FIG. 8; DMSO control.
Assay [1] deals with LGR5-positive cancer stem cell. As to the kind of experiment: Tumor tissue sections of LGR5-iCT organoid xenograft (tdTomato fluorescence, KRT20 immunostaining). The note with it: tumor section on the 5th day from start of administration, daily for 5 days. The assay is classed as in vivo, NOG mice. The source says:
First, an IRES-iCaspase9-T2A-tdTomato construct was introduced into the LGR5 gene locus of the cultured organoid derived from colon cancer by the same method as in Experimental Example 1. Hereinafter, these organoids may be referred to as “LGR5-iCT organoids” in some cases.
iCaspase 9 is a drug-induced suicide gene. The iCaspase 9 has no activity in a monomer, but forms a dimer in the presence of AP20187 (dimerizer, APExBIO) to induce apoptosis. Also, TdTomato is a kind of red fluorescent protein (RFP).
FIG. 4 is a diagram illustrating a structure of the completed LGR5 gene locus and behavior of the drug-induced suicide gene. […] Therefore, it is possible to confirm the presence of the LGR5-positive cell by observing the fluorescence of the tdTomato. […] As a result, the fluorescence of the tdTomato becomes not observed.
The LGR5-iCT organoid was xenografted under the renal capsule of NOG mice (7-12 weeks old, male) by the same method as Experimental Example 2. […] Thereafter, a tumor size of each mouse was measured regularly.
FIGS. 5 (a) and 5(b) show fluorescence micrographs of a result obtained by extracting a tumor of each mouse on the 5th day from the start of administration of the AP20187 to prepare a tissue section and detecting the fluorescence of the tdTomato and KRT20 as a differentiation marker by immunostaining. […]

The subject of assay [2] is tumor derived from LGR5-iCT organoid. The assay can be described thus: Tumor size of LGR5-iCT organoid xenograft measured regularly. The assay is classed as in vivo, NOG mice. The procedure: The LGR5-iCT organoid was xenografted under the renal capsule of NOG mice (7-12 weeks old, male) by the same method as Experimental Example 2. Subsequently, after a tumor was formed, the AP20187 was administered to mice daily for 5 days. In addition, control mice to which only a solvent was administered daily for 5 days. Thereafter, a tumor size of each mouse was measured regularly.
In addition, FIG. 6 is a graph showing a result obtained by measuring the size of a tumor of each of a mouse (Dimerizer) to which the AP20187 is administered and the control mouse (Vehicle), regularly. As a result, it was confirmed that the tumor size was reduced by the administration of the AP20187.
In addition, the inventors examined the expression of the LGR5 gene in the tumor tissue after the administration of the AP20187. […] In addition, it was also clear that a re-increase of the tumor size corresponds to re-expression of the LGR5 gene.

On to `CCc1c2c(nc3ccc(OC(=O)N4CCC(N5CCCCC5)CC4)cc13)-c1cc3c(c(=O)n1C2)COC(=O)[C@]3(O)CC` [irinotecan], for which, in the assay with cancer cell, the “effect against the cancer cell (GFP fluorescence)” value was “showed a growth suppression effect”. Further, in the assay on cancer stem cell, the “effect against the cancer stem cell (tdTomato fluorescence)” value was “not effective”.

As for `O=C1[O][Pt]2([NH][C@@H]3CCCC[C@H]3[NH]2)[O]C1=O` [oxaliplatin], the “effect against the cancer cell (GFP fluorescence)” value in the assay with cancer cell was “kills”. In the assay with cancer stem cell, the “effect against the cancer stem cell (tdTomato fluorescence)” value is given as “kills”.

On to `CC[C@H](C(=O)N1CCCC[C@H]1C(=O)O[C@H](CCc1ccc(OC)c(OC)c1)c1cccc(OCC(=O)NCC(CNC(=O)COc2cccc([C@@H](CCc3ccc(OC)c(OC)c3)OC(=O)[C@@H]3CCCCN3C(=O)[C@@H](CC)c3cc(OC)c(OC)c(OC)c3)c2)CN(C)C)c1)c1cc(OC)c(OC)c(OC)c1` [AP20187], for which, in assay [1], the “effect on LGR5-negative cell” value was “remained intact” and the “effect on LGR5-positive cancer stem cell (apoptosis)” value is listed as “completely died”. Further, the tumor size entry in assay [2] (after administration daily for 5 days) was “reduced”. The tumor growth entry in assay [2] (continuous cancer stem cell treatment, tumor not completely cured) is on record as “could suppress tumor growth”. Also, the “expression of the LGR5 gene in the tumor tissue after administration” value in assay [2] (expression once disappeared, corresponds to re-increase of tumor size) was “recognized again”. For the same molecule, the “tumor size, eventually” value in assay [2] (later after the end of the 5-day administration) is recorded as “increased again”.
